Laboratory results taken from US10144733B2, “Naphthyridine derivatives as alpha v beta 6 integrin antagonists for the treatment of E.G. fibrotic diseases” (GlaxoSmithKline Intellectual Property Development Limited, priority 2014, dated 2018).

What was measured:
Assay type in all cases: cell-based
[1] = biological target: T1, αvβ6 (Homo sapiens, UniProt P06756+P18564); assay: Cell Adhesion Assay K562-αvβ6 (LAP-b1); conditions: K562-αvβ6 cells, ligand LAP-b1, 2 mM MgCl2; read-out: mean affinity (pIC50) αvβ6 (converted)
T1 construct: expressed in transfected cells; host or cells: K562
T1 sequence (P06756 31-889 limits assumed): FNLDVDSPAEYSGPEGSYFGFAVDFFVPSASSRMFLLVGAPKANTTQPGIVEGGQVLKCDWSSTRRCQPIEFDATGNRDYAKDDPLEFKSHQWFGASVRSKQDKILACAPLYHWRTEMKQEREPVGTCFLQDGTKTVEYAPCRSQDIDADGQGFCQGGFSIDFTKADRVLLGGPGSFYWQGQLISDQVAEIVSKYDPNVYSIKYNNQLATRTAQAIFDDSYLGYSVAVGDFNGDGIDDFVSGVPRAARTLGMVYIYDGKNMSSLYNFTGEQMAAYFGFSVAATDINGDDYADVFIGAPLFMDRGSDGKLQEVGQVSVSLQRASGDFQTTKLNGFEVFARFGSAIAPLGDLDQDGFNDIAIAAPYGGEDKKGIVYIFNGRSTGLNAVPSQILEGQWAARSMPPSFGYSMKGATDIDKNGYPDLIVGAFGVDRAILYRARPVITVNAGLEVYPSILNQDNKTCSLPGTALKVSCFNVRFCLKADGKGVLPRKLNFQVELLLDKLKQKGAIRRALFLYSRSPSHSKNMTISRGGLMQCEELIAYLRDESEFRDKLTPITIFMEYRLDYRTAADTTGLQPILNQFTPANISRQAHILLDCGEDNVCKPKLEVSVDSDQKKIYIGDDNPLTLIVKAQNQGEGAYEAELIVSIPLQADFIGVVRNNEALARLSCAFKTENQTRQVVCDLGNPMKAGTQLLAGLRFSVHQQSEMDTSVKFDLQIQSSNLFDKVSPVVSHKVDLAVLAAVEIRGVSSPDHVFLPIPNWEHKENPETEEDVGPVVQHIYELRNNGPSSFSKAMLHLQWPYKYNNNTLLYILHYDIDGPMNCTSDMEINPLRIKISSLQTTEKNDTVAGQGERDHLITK
T1 sequence (P06756 891-1048 partner limits assumed): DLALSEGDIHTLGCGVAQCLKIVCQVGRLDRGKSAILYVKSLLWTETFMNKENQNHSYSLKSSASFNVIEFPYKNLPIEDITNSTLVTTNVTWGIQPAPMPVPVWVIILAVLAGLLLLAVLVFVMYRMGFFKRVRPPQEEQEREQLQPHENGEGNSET
T1 sequence (P18564 22-788): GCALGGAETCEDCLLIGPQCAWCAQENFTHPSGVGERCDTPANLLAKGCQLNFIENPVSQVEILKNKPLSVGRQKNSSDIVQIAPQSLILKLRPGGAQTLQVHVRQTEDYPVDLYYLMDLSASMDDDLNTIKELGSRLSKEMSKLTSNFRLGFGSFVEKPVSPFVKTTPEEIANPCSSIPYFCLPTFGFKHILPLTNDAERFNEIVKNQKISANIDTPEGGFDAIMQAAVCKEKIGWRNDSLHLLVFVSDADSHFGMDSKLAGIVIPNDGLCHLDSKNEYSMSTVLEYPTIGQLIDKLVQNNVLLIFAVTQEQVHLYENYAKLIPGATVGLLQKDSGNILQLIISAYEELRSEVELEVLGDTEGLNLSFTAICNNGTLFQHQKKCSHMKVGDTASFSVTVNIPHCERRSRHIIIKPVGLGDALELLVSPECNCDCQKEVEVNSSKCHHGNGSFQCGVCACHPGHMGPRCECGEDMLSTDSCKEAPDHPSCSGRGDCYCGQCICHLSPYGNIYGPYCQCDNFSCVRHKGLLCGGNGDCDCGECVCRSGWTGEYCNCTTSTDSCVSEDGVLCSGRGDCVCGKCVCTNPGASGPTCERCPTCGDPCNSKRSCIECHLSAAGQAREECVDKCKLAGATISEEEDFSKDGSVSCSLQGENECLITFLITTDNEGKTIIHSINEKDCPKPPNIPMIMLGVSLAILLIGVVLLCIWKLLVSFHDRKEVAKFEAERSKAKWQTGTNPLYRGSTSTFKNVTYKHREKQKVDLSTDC
Description: (§1) The following cell lines were used, with ligands in brackets: K562-α5β1 (Fibronectin), K562-αvβ3 (LAP-b1), K562-αvβ5 (Vitronectin), K562-αvβ6 (LAP-b1), K562-αvβ8 (LAP-b1). The divalent cation used to facilitate adhesion was 2 mM MgCl2. Adhesion was quantified by cell labelling with the fluorescent dye BCECF-AM (Life Technologies), where cell suspensions at 3×10^6 cells/mL were incubated with […] of 30 mM BCECF-AM at 37° C. for 10 minutes, before dispensing into the assay plate. At the assay conclusion cells that adhered were lysed using 50 μL/well of 0.5% Triton X-100 in H2O to release fluorescence. Fluorescence intensity was detected using an Envision® plate reader (Perkin Elmer). For active antagonists in the assay, data were fitted to a 4 parameter logistic equation for IC50 determinations.

[2] = biological target: T2, αvβ3 (Homo sapiens, UniProt P05106+P06756); assay: Cell Adhesion Assay K562-αvβ3 (LAP-b1); conditions: K562-αvβ3 cells, ligand LAP-b1, 2 mM MgCl2; read-out: mean affinity (pIC50) αvβ3 (converted)
T2 construct: expressed in transfected cells; host or cells: K562
T2 sequence (P06756 31-889 limits assumed): as the sequence (P06756 31-889 limits assumed) above
T2 sequence (P06756 891-1048 partner limits assumed): as the sequence (P06756 891-1048 partner limits assumed) above
T2 sequence (P05106 27-788): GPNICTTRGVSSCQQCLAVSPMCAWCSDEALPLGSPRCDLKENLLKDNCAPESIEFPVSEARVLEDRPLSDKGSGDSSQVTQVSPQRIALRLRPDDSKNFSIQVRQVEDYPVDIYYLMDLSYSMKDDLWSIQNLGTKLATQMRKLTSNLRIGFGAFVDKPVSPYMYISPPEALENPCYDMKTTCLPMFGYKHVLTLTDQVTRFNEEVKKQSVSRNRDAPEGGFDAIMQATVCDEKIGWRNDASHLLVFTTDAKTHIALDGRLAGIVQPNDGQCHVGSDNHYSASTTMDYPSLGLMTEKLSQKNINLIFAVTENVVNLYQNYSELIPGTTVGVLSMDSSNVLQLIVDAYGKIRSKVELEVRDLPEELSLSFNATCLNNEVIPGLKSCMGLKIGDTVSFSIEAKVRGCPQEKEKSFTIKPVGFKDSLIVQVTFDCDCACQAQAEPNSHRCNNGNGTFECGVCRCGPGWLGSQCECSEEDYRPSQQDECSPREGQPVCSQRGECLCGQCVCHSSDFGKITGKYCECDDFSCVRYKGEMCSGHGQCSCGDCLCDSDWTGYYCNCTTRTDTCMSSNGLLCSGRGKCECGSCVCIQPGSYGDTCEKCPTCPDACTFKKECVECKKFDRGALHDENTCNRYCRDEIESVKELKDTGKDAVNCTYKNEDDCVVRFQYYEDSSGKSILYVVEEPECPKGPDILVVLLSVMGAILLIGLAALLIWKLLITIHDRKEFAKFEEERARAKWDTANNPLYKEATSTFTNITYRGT
Description: as §1

[3] = biological target: T3, αvβ8 (Homo sapiens, UniProt P06756+P26012); assay: Cell Adhesion Assay K562-αvβ8 (LAP-b1); conditions: K562-αvβ8 cells, ligand LAP-b1, 2 mM MgCl2; read-out: mean affinity (pIC50) αvβ8 (converted)
T3 construct: expressed in transfected cells; host or cells: K562
T3 sequence (P06756 31-889 limits assumed): as the sequence (P06756 31-889 limits assumed) above
T3 sequence (P06756 891-1048 partner limits assumed): as the sequence (P06756 891-1048 partner limits assumed) above
T3 sequence (P26012 43-769): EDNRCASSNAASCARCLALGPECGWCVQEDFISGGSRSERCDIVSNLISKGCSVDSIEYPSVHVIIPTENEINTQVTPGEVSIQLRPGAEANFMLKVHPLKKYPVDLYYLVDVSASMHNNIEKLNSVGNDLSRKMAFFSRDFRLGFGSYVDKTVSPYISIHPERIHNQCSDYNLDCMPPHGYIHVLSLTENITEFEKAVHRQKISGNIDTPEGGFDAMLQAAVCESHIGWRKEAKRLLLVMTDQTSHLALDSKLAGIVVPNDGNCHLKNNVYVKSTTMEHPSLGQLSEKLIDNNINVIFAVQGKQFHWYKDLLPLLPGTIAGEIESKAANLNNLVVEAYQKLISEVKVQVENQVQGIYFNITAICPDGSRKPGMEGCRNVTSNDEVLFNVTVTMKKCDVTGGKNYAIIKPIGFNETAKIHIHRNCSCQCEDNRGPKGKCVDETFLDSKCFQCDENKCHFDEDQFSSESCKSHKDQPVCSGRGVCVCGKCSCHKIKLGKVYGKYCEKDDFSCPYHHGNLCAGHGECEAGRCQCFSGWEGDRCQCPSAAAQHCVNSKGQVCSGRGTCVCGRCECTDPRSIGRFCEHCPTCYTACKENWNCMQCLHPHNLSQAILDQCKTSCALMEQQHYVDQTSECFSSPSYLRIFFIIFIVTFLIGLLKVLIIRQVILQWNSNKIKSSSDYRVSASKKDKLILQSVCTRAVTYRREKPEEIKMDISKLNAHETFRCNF
Description: as §1

[4] = biological target: T4, αvβ5 (Homo sapiens, UniProt P06756+P18084); assay: Cell Adhesion Assay K562-αvβ5 (Vitronectin); conditions: K562-αvβ5 cells, ligand Vitronectin, 2 mM MgCl2; read-out: mean affinity (pIC50) αvβ5 (converted)
T4 construct: expressed in transfected cells; host or cells: K562
T4 sequence (P06756 31-889 limits assumed): as the sequence (P06756 31-889 limits assumed) above
T4 sequence (P06756 891-1048 partner limits assumed): as the sequence (P06756 891-1048 partner limits assumed) above
T4 sequence (P18084 24-799): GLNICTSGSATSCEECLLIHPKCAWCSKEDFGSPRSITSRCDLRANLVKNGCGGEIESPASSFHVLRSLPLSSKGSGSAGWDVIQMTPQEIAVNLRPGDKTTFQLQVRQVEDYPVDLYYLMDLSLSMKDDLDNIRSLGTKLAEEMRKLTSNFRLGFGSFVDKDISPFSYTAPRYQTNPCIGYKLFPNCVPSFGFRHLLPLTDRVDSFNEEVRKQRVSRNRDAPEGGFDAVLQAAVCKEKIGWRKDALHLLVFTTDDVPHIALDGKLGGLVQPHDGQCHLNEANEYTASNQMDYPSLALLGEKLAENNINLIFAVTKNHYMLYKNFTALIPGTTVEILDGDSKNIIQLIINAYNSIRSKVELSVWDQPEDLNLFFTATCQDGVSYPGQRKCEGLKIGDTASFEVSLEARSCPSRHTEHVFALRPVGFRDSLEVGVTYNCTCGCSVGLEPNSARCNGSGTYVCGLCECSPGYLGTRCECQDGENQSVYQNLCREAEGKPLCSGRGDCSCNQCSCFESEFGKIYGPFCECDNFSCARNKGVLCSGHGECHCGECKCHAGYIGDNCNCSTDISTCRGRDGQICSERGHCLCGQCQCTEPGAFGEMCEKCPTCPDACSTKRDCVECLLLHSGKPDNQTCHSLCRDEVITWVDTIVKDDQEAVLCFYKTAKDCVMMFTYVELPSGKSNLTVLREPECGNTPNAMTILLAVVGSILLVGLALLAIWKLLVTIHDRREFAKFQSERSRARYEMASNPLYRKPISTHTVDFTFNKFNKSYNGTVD
Description: as §1

[5] = biological target: αvβ1 (Homo sapiens, UniProt P05556+P06756); assay: Cell Adhesion Assay αvβ1; conditions: 2 mM MgCl2, cell line and ligand for αvβ1 not given, read-out: mean affinity (pIC50) αvβ1 (converted)

Row | SMILES | IC50 [1] | IC50 [2] | IC50 [3] | IC50 [4] | IC50 [5]
1 | Cc1cc(C(C)(C)O)nn1-c1cccc(C(CC(=O)O)CN2CC[C@@H](CCc3ccc4c(n3)NCCC4)C2)c1 (single isomer, unassigned) [Example 6] | 12.6 nM | 3980 nM | 50.1 nM | 200 nM | 
2 | Cc1cc(CO)nn1-c1cccc(C(CC(=O)O)CN2CC[C@@H](CCc3ccc4c(n3)NCCC4)C2)c1 (single isomer, unassigned) [Example 10] | 2.51 nM | 631 nM | 10 nM | 158 nM | 
3 | O=C(O)CC(CN1CC[C@@H](CCc2ccc3c(n2)NCCC3)C1)c1cccc(-n2ccc(C(F)(F)F)n2)c1 (stereo partly drawn) [Example 7, 4-((R)-3-(2-(5,6,7,8-tetrahydro-1,8-naphthyridin-2-yl)ethyl)pyrrolidin-1-yl)-3-(3-(3-(trifluoromethyl)-1H-pyrazol-1-yl)phenyl) butanoic acid] | 6.31 nM | 631 nM | 25.1 nM | 50.1 nM | 
4 | Cc1cc(CF)nn1-c1cccc(C(CC(=O)O)CN2CC[C@@H](CCc3ccc4c(n3)NCCC4)C2)c1 (stereo partly drawn) [Example 11, 3-(3-(3-(fluoromethyl)-5-methyl-1H-pyrazol-1-yl)phenyl)-4-((R)-3-(2-(5,6,7,8-tetrahydro-18-naphthyridin-2-yl)ethyl)pyrrolidin-1-yl)butanoic acid] | 3.16 nM | 1260 nM | 15.8 nM | 158 nM | 63.1 nM
